Experiments:
PRMT5/MEP50 complex = PRMT5/MEP50 complex (Homo sapiens (Human), UniProt O14744); experiment: Biochemical assay: PRMT5/MEP50 methylation of histone H4 based AcH4-23, SPA readout; conditions: PRMT5/MEP50 2.5 nM, 300 nM AcH4-23, 1 μM 3H-SAM
Description: Biochemical Assay Protocol
Compounds were solubilized and 3-fold diluted in 100% DMSO. […] Standard reactions were performed in a total volume of 30 μl in assay buffer, with 300 nM histone H4 based AcH4-23 (Anaspec: AS-65002) as substrate. To this was added the PRMT5/MEP50 complex diluted to provide a final assay concentration of 2.5 nM and the compounds were allowed to preincubate for 20 minutes at 37° C. The reaction was initiated by adding S-[3H-methyl]-adenosyl-L-methionine (PerkinElmer: NET155001MC) to final concentration of 1 μM. Following a 30 minutes incubation at 37° C., the reaction was stopped by adding 25 μL of 8M Guanidine HCl. Prepare streptavidin YSI SPA beads (Perkinelmer: RPNQ0012) at 0.3 mg/mL in assay buffer. To each reaction, add 150 μL of SPA beads suspension, and incubated while shaking at room temperature for 30 minutes. The plate was centrifuged at 100×g for 30 second before reading in a scintillation counter. IC50 values were determined by fitting the data to the standard 4 parameters with Hill Slope using GraphPad Prism software.

[1] = tested on: sDMA marks (SmD3me2s) in U-87 MG cells; experiment: Western blotting for symmetric di-methyl arginine (sDMA) marks in U-87 MG cells; assay type: cell-based; conditions: Homo sapiens, 72 h; U-87 MG cell line, 3 days
Description: (§1) Cell Treatment and Western Blotting for Detecting Symmetric Di-Methyl Arginine (sDMA) Marks
(§2) Compound Titration and Cell Culture:
(§3) Compounds were dissolved in DMSO to make 10 mM stock and 3-fold series dilutions were further conducted to make working stocks top at 1 mM. Granta-519 cells were maintained in PRMI 1640 (Corning Cellgro, Catalog #: 10-040-CV) supplemented with 10% v/v FBS (GE Healthcare, Catalog #: SH30910.03) and U-87 MG cells were maintained in DMEM (Corning Cellgro, Catalog #: 10-013-CV) with 10% FBS and 2 mM Glutamin (Corning Cellgro, Catalog #25005CV).
To determine enzyme inhibition IC50 values in Granta-519 and U-87 MG cells using Western Blot analysis. One day before experiment, Granta-519 cells were passaged to a density of 0.5×10^6 cells/ml. U-87 MG cells were trypsinized and 4×10^5 cells were seeded into 6-well plates and allow to grow overnight. The next day, Granta-519 cells were spun down at 1,500 rpm for 4 min, resuspend in fresh medium at 0.5×10^6 cells/ml and 3 mL of culture (1.5×10^6 cells) were seeded into 6 well plate. Eight-point, 3-fold serial dilutions of compound working stocks were added to cells (3 ul, 1:1,000 dilution, DMSO concentration was 0.1%; final top concentration at 1 uM) and incubated for 3 days. Cells incubated with DMSO was used as a vehicle control.
Cells were harvested 3 days later, resuspended in 15 uL PBS, lysed in 4% SDS, and homogenized by passing through homogenizer column (Omega Biotek, Catalog #: HCR003). Total protein concentrations were determined by BCA assay (ThermoFisher Scientific, Catalog #: 23225). Lysates were mixed with 5× Laemmli buffer and boiled for 5 min. Forty ug of total protein was separated on SDS-PAGE gels (Bio-Rad, catalog #: 4568083, 4568043), transferred to PVDF membrane, blocked with 5% dry milk (Bio-Rad, Catalog #: 1706404) in TBS with 0.1% v/v Tween 20 (TBST) for 1 hour at room temperature (RT), and incubated with primary antibodies (sDMA: Cell signaling, Catalog #: 13222, 1:3,000; β-Actin: sigma, Catalog #: 1:5,000) in 5% dry milk in TBST at 4° C. overnight. The next day, membranes were washed with TBST, 5×5 min, and incubated with HRP conjugated seconded antibody (GE Healthcare; Catalog #: NA934-1ML, NA931-1ML; 1:5,000) for 2 hours at RT, followed by 5×5 min washes with TBST, and incubation with ECL substrates (Bio-Rad, Catalog #: 1705061, 1705062). Chemiluminescent signal was captured with Fluochem HD2 imager (Proteinsimple). SmD3me2s bands were quantified by ImageJ. Signals were normalized to β-Actin and DMSO control. IC50 values were calculated using Graphpad Prism ([Inhibitor] vs. normalized response-Variable slope).

[2] = tested on: sDMA marks (SmD3me2s) in Granta-519 cells; experiment: Western blotting for symmetric di-methyl arginine (sDMA) marks in Granta-519 cells; assay type: cell-based; conditions: Homo sapiens, 72 h; Granta-519 cell line (value in brackets), 3 days
Description: as §1, §2, §3
To determine enzyme inhibition IC50 values in Granta-519 and U-87 MG cells using Western Blot analysis. One day before experiment, Granta-519 cells were passaged to a density of 0.5×10^6 cells/ml. U-87 MG cells were trypsinized and 4×10^5 cells were seeded into 6-well plates and allow to grow overnight. […]
Cells were harvested 3 days later, resuspended in 15 uL PBS, lysed in 4% SDS, and homogenized by passing through homogenizer column (Omega Biotek, Catalog #: HCR003). Total protein concentrations were determined by BCA assay (ThermoFisher Scientific, Catalog #: 23225). […] SmD3me2s bands were quantified by ImageJ. […] IC50 values were calculated using Graphpad Prism ([Inhibitor] vs. normalized response-Variable slope).

U-87 MG cells = experiment: Cell proliferation assay (CCK-8, day 10) in U-87 MG cells; assay type: cell-based; conditions: Homo sapiens, 240 h, U-87 MG cell line, read-out: Prolif. IC50
Description: Cell Proliferation Assay to Determine IC50 in Granta-519 and U-87 MG Cells
One day before experiment, Granta-519 cells were passaged to a density of 0.5×10^6 cells/ml. U-87 MG cells were trypsinized and 2,000 cells were seeded into 96-well plates and allow to grow overnight. On the day of experiment (day 0), Granta-519 Cells were spun down at 1,500 rpm for 4 min, resuspended in fresh medium to 0.5×10^6 cells/ml and 190 ul of cells were added to 96 well plates. For U-87 MG cells, old medium was removed and replaced with 190 uL fresh medium. Compound working stocks were first diluted at 1:50 with fresh medium in 96 well plate and 10 μL of diluted drugs were added to 96 well plates containing cells and incubated for 3 days. DMSO was used a vehicle control.
One day 3, 50 uL of Granta-519 cells were transferred to a new 96-well plate and 140 uL fresh medium was added. For U-87 MG cells, old medium was removed and replaced with 190 uL fresh medium. Compound working stocks were freshly diluted at 1:50 with medium and 10 μL of diluted drugs were added to cells and grow for 3additional days. The same process was repeated on day 6. Cells were allowed to grow for additional 4 days.
On day 10, 100 uL Granta-519 cells were transferred to a new 96 well plate and 10 μL of Cell Counting Kit-8 (CCK-8, Jojindo, CK04-13) solution was added. For U-87 MG cells, old medium was removed and replaced with 100 uL fresh medium and 10 uL CCK-8 solution was added. Plates were incubated in CO2 incubator for 2 hours (Granta-519 cells) or 30 min (U-87 MG cells) and OD450 values were measured with a microplate reader (iMark microplate reader, Bio-Rad). Percentage of viable cells, relative to DMSO vehicle control, were calculated and plotted in Graphpad Prism ([Inhibitor] vs. normalized response-Variable slope) to determine proliferation IC50 values on day 10.

Chain of PRMT5/MEP50 complex (O14744 whole entry): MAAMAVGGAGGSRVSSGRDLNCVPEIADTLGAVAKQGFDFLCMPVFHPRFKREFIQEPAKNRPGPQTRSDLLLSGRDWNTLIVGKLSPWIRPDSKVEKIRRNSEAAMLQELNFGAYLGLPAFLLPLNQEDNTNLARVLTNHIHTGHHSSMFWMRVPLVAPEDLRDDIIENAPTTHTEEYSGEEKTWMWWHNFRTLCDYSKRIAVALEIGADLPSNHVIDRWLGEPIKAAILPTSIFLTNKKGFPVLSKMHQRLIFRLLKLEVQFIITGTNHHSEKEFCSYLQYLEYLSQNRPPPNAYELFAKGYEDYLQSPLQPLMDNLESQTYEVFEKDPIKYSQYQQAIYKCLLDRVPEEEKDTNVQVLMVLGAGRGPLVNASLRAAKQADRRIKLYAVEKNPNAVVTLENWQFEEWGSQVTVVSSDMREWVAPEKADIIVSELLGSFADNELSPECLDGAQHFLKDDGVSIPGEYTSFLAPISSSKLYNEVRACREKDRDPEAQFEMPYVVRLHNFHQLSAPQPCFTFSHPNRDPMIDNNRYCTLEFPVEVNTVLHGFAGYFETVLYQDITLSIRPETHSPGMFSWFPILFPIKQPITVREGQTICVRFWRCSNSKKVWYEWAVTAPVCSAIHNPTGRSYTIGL
Chain of PRMT5/MEP50 complex (Q9BQA1 whole entry partner): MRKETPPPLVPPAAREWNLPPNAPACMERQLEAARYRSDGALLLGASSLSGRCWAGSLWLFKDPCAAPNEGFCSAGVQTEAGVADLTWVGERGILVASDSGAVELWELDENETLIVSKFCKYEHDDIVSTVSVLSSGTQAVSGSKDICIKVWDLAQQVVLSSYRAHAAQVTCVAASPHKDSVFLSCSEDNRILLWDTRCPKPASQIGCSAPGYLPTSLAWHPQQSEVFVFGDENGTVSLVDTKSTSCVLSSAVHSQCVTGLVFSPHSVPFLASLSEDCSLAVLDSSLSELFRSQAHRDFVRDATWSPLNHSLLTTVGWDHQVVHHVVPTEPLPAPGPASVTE

| Compound | IC50 (PRMT5/MEP50 complex) [nM] | IC50 [1] [nM] | IC50 (U-87 MG cells) [nM] | IC50 [2] [nM] |
| --- | --- | --- | --- | --- |
| Nc1ncnc2c1ccn2[C@@H]1C[C@H]([C@@H]2OC(=O)c3cc(Cl)ccc32)[C@@H](O)[C@H]1O [Example 3A, (S)-3-((1S,2R,3S,4R)-4-(4-amino-7H-pyrrolo[2,3-d]pyrimidin-7-yl)-2,3-dihydroxycyclopentyl)-6-chloroisobenzofuran-1(3H)-one] | 21 |  |  | 1620 |
| Nc1ncnc2c1ccn2[C@@H]1O[C@H]([C@@H]2OCc3cc(F)c(F)cc32)[C@@H](O)[C@H]1O [Example 4, (2R,3R,4S,5S)-2-(4-amino-7H-pyrrolo[2,3-d]pyrimidin-7-yl)-5-((R)-5,6-difluoro-1,3-dihydroisobenzofuran-1-yl)tetrahydrofuran-3,4-diol] | 1.5 | 31 | 95 |  |
| Nc1ncnc2c1ccn2[C@@H]1O[C@H]([C@@H]2OCCc3c2ccc(Cl)c3F)[C@@H](O)[C@H]1O [Example 84, (2R,3R,4S,5S)-2-(4-amino-7H-pyrrolo[2,3-d]pyrimidin-7-yl)-5-((R)-6-chloro-5-fluoroisochroman-1-yl)tetrahydrofuran-3,4-diol] | 4.4 | 27.6 | 94 |  |
| Cc1ncnc2c1ccn2[C@@H]1O[C@H]([C@@H]2OCOc3c2ccc(F)c3F)[C@@H](O)[C@H]1O [Example 97, (2S,3S,4R,5R)-2-((R)-7,8-difluoro-4H-benzo[d][1,3]dioxin-4-yl)-5-(4-methyl-7H-pyrrolo[2,3-d]pyrimidin-7-yl)tetrahydrofuran-3,4-diol] | 4.7 | 51.7 | 117 |  |
| Nc1ncnc2c1ccn2[C@@H]1O[C@H]([C@@H]2OCCc3cc(Cl)ccc32)[C@@H](O)[C@H]1O [Example 68, (2R,3R,4S,5S)-2-(4-amino-7H-pyrrolo[2,3-d]pyrimidin-7-yl)-5-((R)-6-chloroisochroman-1-yl)tetrahydrofuran-3,4-diol] | 1.2 | 2.58 | 9.1 |  |
| Nc1ncnc2c1ccn2[C@@H]1O[C@H]([C@@H]2OC[C@H](F)c3cc(Cl)ccc32)[C@@H](O)[C@H]1O [Example 95, (2R,3R,4S,5S)-2-(4-amino-7H-pyrrolo[2,3-d]pyrimidin-7-yl)-5-((1R,4R)-6-chloro-4-fluoroisochroman-1-yl)tetrahydrofuran-3,4-diol] | 1.6 | 11.1 | 18.5 |  |
| Cc1ncnc2c1ccn2[C@@H]1O[C@H]([C@@H]2OCCc3cc(Cl)c(Cl)cc32)[C@@H](O)[C@H]1O [Example 87, (2S,3S,4R,5R)-2-((R)-6,7-dichloroisochroman-1-yl)-5-(4-methyl-7H-pyrrolo[2,3-d]pyrimidin-7-yl)tetrahydrofuran-3,4-diol] | 7.7 | 120 | 509 |  |
| Cc1ncnc2c1ccn2[C@@H]1O[C@H]([C@@H]2OCCc3c2ccc(Cl)c3F)[C@@H](O)[C@H]1O [Example 83, (2S,3S,4R,5R)-2-((R)-6-chloro-5-fluoroisochroman-1-yl)-5-(4-methyl-7H-pyrrolo[2,3-d]pyrimidin-7-yl)tetrahydrofuran-3,4-diol] | 13.2 | 199 | 377 |  |

Second part, led by results:

| IC50 (PRMT5/MEP50 complex) [nM] | IC50 [1] [nM] | IC50 (U-87 MG cells) [nM] | Compound | IC50 [2] [nM] |
| --- | --- | --- | --- | --- |
| 3.8 | 120 | 142 | Nc1ncnc2c1ccn2[C@@H]1O[C@H]([C@@H]2OCc3cc(Cl)ccc32)[C@@H](O)[C@H]1O [Example 1A, (2R,3R,4S,5S)-2-(4-amino-7H-pyrrolo[2,3-d]pyrimidin-7-yl)-5-((R)-5-chloro-1,3-dihydroisobenzofuran-1-yl)tetrahydrofuran-3,4-diol] | 27 |
| 31 | 563 | > 1000 | Nc1ncnc2c1ccn2[C@@H]1C[C@H]([C@@H]2OCc3cc(Cl)ccc32)[C@@H](O)[C@H]1O [Example 2B, (1R,2S,3R,5S)-3-(4-amino-7H-pyrrolo[2,3-d]pyrimidin-7-yl)-5-((S)-5-chloro-1,3-dihydroisobenzofuran-1-yl)cyclopentane-1,2-diol] |  |

— patent US10711007B2, “Selective inhibitors of protein arginine methyltransferase 5 (PRMT5)” (Prelude Therapeutics, Incorporated, priority 2018, dated 2020)
